Data published in the supplement of paper PMC9013687.

Assays:
Danio rerio embryo [1] = experiment: EC50 Curvature_Increase
Experimental: (§1)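 Zebrafish embryos (UFZ-OBI strain) were exposed from 2 hpf for 48 h (2 dpf) or 96 h (4 dpf) at 28 °C; spontaneous tail coiling was scored at 25 hpf. Morphological features from automated image analysis (FishInspector), heart rate and locomotor response were fitted with drc models. Quantal endpoints were dichotomised at 2.5 SD from controls and fitted with a log-logistic model; heart rate, pigmentation and STC were normalised to the replicate control mean. Betamethasone was tested as betamethasone dipropionate, diflorasone as diflorasone diacetate.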

Danio rerio embryo [2] = experiment: EC20 LMR dark; higher = less potent; settings: exposure time: 4 dpf
Experimental: as §1

Danio rerio embryo [3] = experiment: EC10 Eye-jaw distance_Decrease; higher = less potent; settings: exposure time: 4 dpf
Experimental: as §1

Danio rerio embryo [4] = experiment: EC20 Eye-jaw distance_Decrease; higher = less potent; settings: exposure time: 4 dpf
Experimental: as §1

Danio rerio embryo [5] = settings: exposure time: 4 dpf
Experimental: as §1

Danio rerio embryo [6] = experiment: EC10 Otolith-eye distance_Decrease; higher = less potent; settings: exposure time: 4 dpf
Experimental: as §1

Danio rerio embryo [7] = system: Danio rerio embryo
Experimental: as §1

Danio rerio embryo [8] = experiment: EC20 Body length_Decrease; higher = less potent
Experimental: as §1

Danio rerio embryo [9] = experiment: EC20 Bladder size_Decrease; higher = less potent; settings: exposure time: 4 dpf
Experimental: as §1

Danio rerio embryo [10] = experiment: EC50 Eye size_Decrease
Experimental: as §1

Danio rerio embryo [11] = experiment: EC10 Bladder size_Decrease; higher = less potent; settings: exposure time: 4 dpf
Experimental: as §1

Danio rerio embryo [12] = experiment: EC20 Curvature_Increase; higher = less potent
Experimental: as §1

Danio rerio embryo [13] = experiment: EC50 Eye-jaw distance_Decrease; settings: exposure time: 4 dpf
Experimental: as §1

Danio rerio embryo [14] = experiment: EC10 LMR dark; higher = less potent; settings: exposure time: 4 dpf
Experimental: as §1

Danio rerio embryo [15] = experiment: EC50 Otolith-eye distance_Decrease; settings: exposure time: 4 dpf
Experimental: as §1

Danio rerio embryo [16] = experiment: EC10 Curvature_Increase; higher = less potent
Experimental: as §1

Danio rerio embryo [17] = experiment: EC50 Yolk sac size_Increase; settings: exposure time: 4 dpf
Experimental: as §1

Danio rerio embryo [18] = experiment: EC20 Otolith-eye distance_Decrease; higher = less potent; settings: exposure time: 4 dpf
Experimental: as §1

Danio rerio embryo [19] = experiment: EC20 Pericard size_Increase; higher = less potent
Experimental: as §1

Danio rerio embryo [20] = experiment: EC50 Bladder size_Decrease; settings: exposure time: 4 dpf
Experimental: as §1

Danio rerio embryo [21] = experiment: EC10 Body length_Decrease; higher = less potent
Experimental: as §1

Danio rerio embryo [22] = experiment: EC20 Any effect; higher = less potent
Experimental: as §1

Danio rerio embryo [23] = experiment: EC50 Pericard size_Increase
Experimental: as §1

Danio rerio embryo [24] = experiment: EC10 Pericard size_Increase; higher = less potent
Experimental: as §1

Danio rerio embryo [25] = experiment: EC10 Yolk sac size_Increase; higher = less potent; settings: exposure time: 4 dpf
Experimental: as §1

Danio rerio embryo [26] = experiment: EC50 Body length_Decrease
Experimental: as §1

Danio rerio embryo [27] = experiment: EC20 Yolk sac size_Increase; higher = less potent; settings: exposure time: 4 dpf
Experimental: as §1

Danio rerio embryo [28] = experiment: EC50 Head trunk angle_Decrease; settings: exposure time: 2 dpf
Experimental: as §1

Danio rerio embryo [29] = experiment: spontaneous tail coiling frequency (coils/min/embryo); higher = more spontaneous movement; settings: 25 hpf
Experimental: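 Spontaneous tail coilings of zebrafish embryos exposed from 2 hpf were recorded at 24-25 hpf in 1-min videos and detected by a KNIME workflow from grey-value variance. Betamethasone was tested as the dipropionate, diflorasone as the diacetate.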

Danio rerio embryo [30] = experiment: EC10 Any effect; higher = less potent
Experimental: as §1

CC(C)(C)C(O)/C(=C/c1ccc(Cl)cc1Cl)n1cncn1 (stereo unspecified) [Diniconazole]
Settings	EC10 Any effect [µM]	EC10 Body length Decrease [µM]	EC10 Curvature Increase [µM]	EC10 Pericard size Increase [µM]	EC20 Any effect [µM]	EC20 Body length Decrease [µM]	EC20 Curvature Increase [µM]	EC20 Pericard size Increase [µM]	EC50 Any effect [µM]	EC50 Body length Decrease [µM]	EC50 Curvature Increase [µM]	EC50 Eye size Decrease [µM]	EC50 LMR ligth decrease [µM]	EC50 Pericard size Increase [µM]	EC50 Pigmentation increase [µM]	spontaneous tail coiling frequency
Danio rerio embryo [1], exposure time: 2 dpf	–	–	–	–	–	–	–	–	–	–	7.07	–	–	–	–	–
Danio rerio embryo [1], exposure time: 4 dpf	–	–	–	–	–	–	–	–	–	–	6.35	–	–	–	–	–
Danio rerio embryo [7], exposure time: 2 dpf	–	–	–	–	–	–	–	–	3.77	–	–	–	–	–	–	–
Danio rerio embryo [7], exposure time: 4 dpf	–	–	–	–	–	–	–	–	2.61	–	–	–	2.31	–	11.8	–
Danio rerio embryo [8], exposure time: 2 dpf	–	–	–	–	–	7.36	–	–	–	–	–	–	–	–	–	–
Danio rerio embryo [8], exposure time: 4 dpf	–	–	–	–	–	6.12	–	–	–	–	–	–	–	–	–	–
Danio rerio embryo [10], exposure time: 2 dpf	–	–	–	–	–	–	–	–	–	–	–	7.85	–	–	–	–
Danio rerio embryo [10], exposure time: 4 dpf	–	–	–	–	–	–	–	–	–	–	–	5.05	–	–	–	–
Danio rerio embryo [12], exposure time: 2 dpf	–	–	–	–	–	–	4.89	–	–	–	–	–	–	–	–	–
Danio rerio embryo [12], exposure time: 4 dpf	–	–	–	–	–	–	3.75	–	–	–	–	–	–	–	–	–
Danio rerio embryo [16], exposure time: 2 dpf	–	–	3.94	–	–	–	–	–	–	–	–	–	–	–	–	–
Danio rerio embryo [16], exposure time: 4 dpf	–	–	2.76	–	–	–	–	–	–	–	–	–	–	–	–	–
Danio rerio embryo [19], exposure time: 2 dpf	–	–	–	–	–	–	–	2.51	–	–	–	–	–	–	–	–
Danio rerio embryo [19], exposure time: 4 dpf	–	–	–	–	–	–	–	3.81	–	–	–	–	–	–	–	–
Danio rerio embryo [21], exposure time: 2 dpf	–	6.73	–	–	–	–	–	–	–	–	–	–	–	–	–	–
Danio rerio embryo [21], exposure time: 4 dpf	–	5.67	–	–	–	–	–	–	–	–	–	–	–	–	–	–
Danio rerio embryo [22], exposure time: 2 dpf	–	–	–	–	3	–	–	–	–	–	–	–	–	–	–	–
Danio rerio embryo [22], exposure time: 4 dpf	–	–	–	–	1.89	–	–	–	–	–	–	–	–	–	–	–
Danio rerio embryo [23], exposure time: 2 dpf	–	–	–	–	–	–	–	–	–	–	–	–	–	5.78	–	–
Danio rerio embryo [23], exposure time: 4 dpf	–	–	–	–	–	–	–	–	–	–	–	–	–	3.83	–	–
Danio rerio embryo [24], exposure time: 2 dpf	–	–	–	1.54	–	–	–	–	–	–	–	–	–	–	–	–
Danio rerio embryo [24], exposure time: 4 dpf	–	–	–	3.8	–	–	–	–	–	–	–	–	–	–	–	–
Danio rerio embryo [26], exposure time: 2 dpf	–	–	–	–	–	–	–	–	–	8.59	–	–	–	–	–	–
Danio rerio embryo [26], exposure time: 4 dpf	–	–	–	–	–	–	–	–	–	6.97	–	–	–	–	–	–
Danio rerio embryo [29], 1.13 µM	–	–	–	–	–	–	–	–	–	–	–	–	–	–	–	1.89
Danio rerio embryo [29], 1.7 µM	–	–	–	–	–	–	–	–	–	–	–	–	–	–	–	2.58
Danio rerio embryo [29], 2.55 µM	–	–	–	–	–	–	–	–	–	–	–	–	–	–	–	2.31
Danio rerio embryo [29], 3.8 µM	–	–	–	–	–	–	–	–	–	–	–	–	–	–	–	2.05
Danio rerio embryo [29], 5.75 µM	–	–	–	–	–	–	–	–	–	–	–	–	–	–	–	2.87
Danio rerio embryo [29], 7.66 µM	–	–	–	–	–	–	–	–	–	–	–	–	–	–	–	3.42
Danio rerio embryo [29], 9.2 µM	–	–	–	–	–	–	–	–	–	–	–	–	–	–	–	3.35
Danio rerio embryo [30], exposure time: 2 dpf	2.63	–	–	–	–	–	–	–	–	–	–	–	–	–	–	–
Danio rerio embryo [30], exposure time: 4 dpf	1.56	–	–	–	–	–	–	–	–	–	–	–	–	–	–	–

Settings	EC10 Bladder size Decrease [µM]	EC10 Eye-jaw distance Decrease [µM]	EC10 LMR dark [µM]	EC10 Otolith-eye distance Decrease [µM]	EC10 Yolk sac size Increase [µM]	EC20 Bladder size Decrease [µM]	EC20 Eye-jaw distance Decrease [µM]	EC20 LMR dark [µM]	EC20 Otolith-eye distance Decrease [µM]	EC20 Yolk sac size Increase [µM]	EC50 Bladder size Decrease [µM]	EC50 Eye-jaw distance Decrease [µM]	EC50 Head trunk angle Decrease [µM]	EC50 LMR dark [µM]	EC50 Otolith-eye distance Decrease [µM]	EC50 Yolk sac size Increase [µM]
Danio rerio embryo [2]	–	–	–	–	–	–	–	2.86	–	–	–	–	–	–	–	–
Danio rerio embryo [3]	–	2.39	–	–	–	–	–	–	–	–	–	–	–	–	–	–
Danio rerio embryo [4]	–	–	–	–	–	–	2.57	–	–	–	–	–	–	–	–	–
Danio rerio embryo [5]	–	–	–	–	–	–	–	–	–	–	–	–	–	4.3	–	–
Danio rerio embryo [6]	–	–	–	3.74	–	–	–	–	–	–	–	–	–	–	–	–
Danio rerio embryo [9]	–	–	–	–	–	1.92	–	–	–	–	–	–	–	–	–	–
Danio rerio embryo [11]	1.71	–	–	–	–	–	–	–	–	–	–	–	–	–	–	–
Danio rerio embryo [13]	–	–	–	–	–	–	–	–	–	–	–	2.91	–	–	–	–
Danio rerio embryo [14]	–	–	2.25	–	–	–	–	–	–	–	–	–	–	–	–	–
Danio rerio embryo [15]	–	–	–	–	–	–	–	–	–	–	–	–	–	–	5.4	–
Danio rerio embryo [17]	–	–	–	–	–	–	–	–	–	–	–	–	–	–	–	3.05
Danio rerio embryo [18]	–	–	–	–	–	–	–	–	4.28	–	–	–	–	–	–	–
Danio rerio embryo [20]	–	–	–	–	–	–	–	–	–	–	2.35	–	–	–	–	–
Danio rerio embryo [25]	–	–	–	–	1.26	–	–	–	–	–	–	–	–	–	–	–
Danio rerio embryo [27]	–	–	–	–	–	–	–	–	–	1.74	–	–	–	–	–	–
Danio rerio embryo [28]	–	–	–	–	–	–	–	–	–	–	–	–	4.5	–	–	–
